This is an account of results in patent US10106502B2, “Direct inhibitors of Keap1-Nrf2 interaction as antioxidant inflammation modulators” (Rutgers, The State University of New Jersey, priority 2011, dated 2018).

Test [1] has as its system CellSensor® ARE-bla Hep G2 cell line. The test is described as follows: cell-based ARE β-lactamase reporter assay. Further details: species or system human.
Test [2] deals with T1, Keap1 Kelch domain (Homo sapiens, UniProt Q14145). In words: FP assay, dose-response retest of HTS hits. The class given is binding. Also noted: Human Keap1 Kelch domain protein was cloned into expression vector pET15b; inferred from vector pET15b and Ni-NTA purification) (N); made in house; host or cells: E. coli BL21 (DE3). Here is the method: Human Keap1 Kelch domain protein was cloned into expression vector pET15b and transformed into E. coli BL21 (DE3) strain. The protein was purified through Ni-NTA affinity column. Purified protein was stored in the buffer containing 20 mM HEPES (pH7.4), 5 mM DTT at −80° C.
T1 sequence (Q14145 321-609 limits assumed): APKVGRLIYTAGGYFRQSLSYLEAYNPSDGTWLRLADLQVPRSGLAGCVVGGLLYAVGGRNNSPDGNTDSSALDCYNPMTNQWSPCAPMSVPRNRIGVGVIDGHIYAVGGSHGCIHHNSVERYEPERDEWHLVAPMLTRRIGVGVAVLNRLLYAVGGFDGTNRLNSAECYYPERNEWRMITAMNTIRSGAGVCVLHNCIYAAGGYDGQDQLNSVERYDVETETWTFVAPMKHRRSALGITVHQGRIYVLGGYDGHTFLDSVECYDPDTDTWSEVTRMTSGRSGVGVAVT
2) 60 mL of 8 μM Ac-9mer-Nrf2 was prepared by taking 0.48 mL of 1 mM Ac-9mer-Nrf2 in 100% DMSO in 60 mL FP buffer 3) 500 mL of 400 nM Keap1 Kelch domain was prepared by taking 9 mL of 0.75 mg/mL Keap1 Kelch domain in 500 mL FP buffer.
10 nM FITC-9mer-Nrf2-NH2, 100 nM Kelch Kelch domain.
The first of these assays is an FP assay that uses a fluorescently labeled Nrf2 peptide amide as the probe and directly measures the displacement of fluorescent probe from the Nrf2-binding site of Keap1 Kelch domain by inhibitors via changes in fluorescence anisotropy. […] The second of the fluorescence-based assays is a time-resolved fluorescence energy transfer (TR-FRET) assay which uses an in situ labeling method we recently developed to attach a lanthanide chelate to Keap1 Kelch domain as the FRET donor and fluorescein-labeled Nrf2 peptide as the acceptor. One advantage of the TR-FRET assay is that it is less susceptible to compound interference than an FP assay.

Test [3] deals with T1, Keap1 Kelch domain. The test is described as follows: SPR-based solution competition assay. The class given is binding. Further details: 40 nM of Keap1 Kelch domain was incubated in the presence of test compounds; inferred from vector pET15b and Ni-NTA purification of the one described Kelch preparation) (N); made in house; host or cells: E. coli BL21 (DE3).
Where [4] appears, read: Keap1-retest in dose, 8-point FP dose-response of HTS hits.

Molecules are shown by their SMILES.

For the compound `Cc1ccc(S(=O)(=O)Nc2cc(C(C(=O)OC(C)C)C(=O)C(F)(F)F)c(O)c3ccccc23)c(C)c1` (racemic) [LH602, 4-[[(2,4-Dimethylphenyl)sulfonyl]amino]-1-hydroxy-α-(2,2,2-trifluoroacetyl)-2-naphthaleneacetic acid, 1-methylethyl ester], the EC50 in test [1] (Homo sapiens, HepG2, read-out: EC50 of ARE-inducing activity) lay within 16 to 18 µM. Further, the results for the IC50 at Keap1 Kelch domain [2] (setting [4]) and against Keap1 Kelch domain [2] (resynthesized compound) were 2.7 µM and 3 µM, respectively. In addition, the Kd on Keap1 Kelch domain [3] (Keap1 Kelch domain, SPR, read-out: Kd (Keap1 binding affinity)) was determined as 1.7 µM.
Regarding `O=C(O)[C@@H]1CCCC[C@@H]1C(=O)N1CCc2ccccc2C1CN1C(=O)c2ccccc2C1=O` (relative stereo) [LH601C/D], the “ARE-inducing activity (in words)” value in test [1] was “inactive”.
For `O=C(O)[C@H]1CCCC[C@H]1C(=O)N1CCCCC1CN1C(=O)c2ccccc2C1=O` (relative stereo) [LH641, cis-2-(2-((1,3-dioxoisoindolin-2-yl)methyl)piperidine-1-carbonyl)cyclohexane carboxylic acid], at Keap1 Kelch domain [3], the “binding to Keap1 Kelch domain (in words)” value is reported as “complete loss of binding”.
Consider `NS(=O)(=O)c1cc(C(=O)NC2CCSc3ccccc32)ccc1Cl` (stereo not drawn) [BRD-A83249228-001-07-1, 3-(Aminosulfonyl)-4-chloro-N-(3,4-dihydro-2H-1-benzothiopyran-4-yl)benzamide], for which 135 µM corresponded to half-maximal inhibition against Keap1 Kelch domain [2] (setting [4]) (IC50).
The same measure, in the same setting: as for `COc1ccc(C(C)=NNc2ccc([N+](=O)[O-])cc2S(=O)(=O)Nc2ccccc2C(=O)O)c(OC)c1` [BRD-K09114961-001-03-6, 2-[[[2-[2-[1-(2,4-dimethoxyphenyl)ethylidene]hydrazinyl]-5-nitrophenyl]sulfonyl]amino] benzoic acid], the figure is 26 µM; as for `O=C(O)c1cc(N2C(=O)C=CC2=O)cc(N2C(=O)C=CC2=O)c1` [BRD-K11951445-001-04-1, 3,5-Bis(2,5-dihydro-2,5-dioxo-1H-pyrrol-1-yl)-benzoic acid], 19 µM.
On Keap1 Kelch domain [2] (setting [4]), `COc1cc(NS(=O)(=O)c2ccc(NC(=S)NC(=O)/C=C/c3ccco3)cc2)ncn1` [BRD-K42553821-001-05-9, 3-(2-Furanyl)-N-[[[4-[[(6-methoxy-4-pyrimidinyl)amino]sulfonyl]phenyl]amino]-thioxomethyl]-2-Propenamide] had an IC50 of 91 µM. Compared with the last compound, the IC50 is about 4.8-fold higher.
Still for that read-out and setting: as for `CC1=C[C@@H]2c3cccc4[nH]cc(c34)C[C@H]2N(C)C1` [BRD-K56215778-001-06-9, 8,9-Didehydro-6,8-dimethyl-ergoline], the figure is 37 µM.
Same read-out and setting: in the case of `O=C1CCCc2oc3c(cc(NS(=O)(=O)c4ccc5c6c(cccc46)C(=O)N5)c4ccccc43)c21` [BRD-K91732811-001-06-9, 1,2-Dihydro-2-oxo-N-(7,8,9,10-tetrahydro-7-oxobenzo[b]naphtho[2,1-d]furan-5-yl) benz[cd]indole-6-sulfonamide] it was 55 µM.

For orientation: EC50 means the concentration that produces a half-maximal response. As usually defined, the IC50 is the concentration that inhibits the measured activity by half. Low readings indicate greater potency, high ones weaker potency. As usually defined, the Kd is a measure of binding affinity in units of concentration.
